Measurements taken from patent EP1623706A2 (priority 2001, dated 2002).
Where two headings read alike, the source gives them in different places.

What was measured:
[1] = tested on: endothelial cells occurring in MATRIGEL plugs; assay: In vivo […] plug angiogenesis model; set-up: species or system athymic (nu/nu) Balb/c mice; conditions: mouse
Method: LX1 human lung tumor fragments that were maintained by serial subcutaneous passage in athymic (nu/nu) Balb/c mice were implanted subcutaneously as small fragments approximately 0.1 mm^3 in size. Tumor volume doubling time for this tumor in these studies was 2.8 days. When tumors reached the size range of 150-200 mm^3, liquid […] was injected subcutaneously on the side contralateral to the tumor. Treatment was initiated 24 hours later at varying doses and schedules. Prior to implanting, […] is prepared by placing solidified […] on ice overnight at 4 C in accordance with the method described by Passiniti et al. (Lab. Invest. 1992 67:519-28). At the liquid phase and while on ice, VEGF and bFGF (Peprotech, Inc. Rocky Hill, NJ) is added to the […] at final respective concentrations of 75 ng/ml and 300 ng/ml. Stock solutions of these growth factors are made fresh at 10 mg/ml in PBS. […] These plugs were then processed for paraffin embedding and sectioned at 5 µm thickness followed by staining with hematoxylin and eosin prior to quantitative analysis. The number of endothelial cells in plugs was quantitated using the IMAGEPRO PLUS software (Media Cybernetics, Inc., Silver Spring, MD) at a magnification of 20x. […]
Angiogenesis is evaluated in these plugs as the number of endothelial cells migrating into plugs from compound treated groups relative to the vehicle treated group. […]

[2] = tested on: human breast carcinoma line H3396; assay: H3396 tumor cell proliferation (3H-thymidine incorporation); type: cell-based
Method: Primary human umbilical vein endothelial cells (HUVEC) were purchased from CLONETICS Inc. (San Diego, CA) and used at passage 2 to 3. Proliferation was measured using ^3H-thymidine incorporation in cells by pulsing twenty-four hours prior to harvesting cell cultures. The human breast carcinoma line H3396 was used to assess activity of compound on tumor cells. Cells (2 × 10^3) were plated on collagen IV coated 96 well plates. Twenty-four hours later, compounds were added at varying concentrations. After 48 hours, ^3H-thymidine was added and cells were allowed to incorporate this label over a twenty-four hour period. Cellular extracts were harvested onto glass filters and incorporated radioactivity was determined by counting in a Beta scintillation counter. The IC50, defined as the drug concentration that causes 50% inhibition of ^3H-thymidine incorporation, was extrapolated from the plotted data. Cell selective inhibition for endothelial cells by a particular compound was defined by at least a ten-fold greater inhibition of HUVEC primary cell cultures when compared to the H3396 tumor cell line.

[3] = tested on: drug-resistant Lewis Lung carcinoma; conditions: 170 mg/kg every 6 days versus other cyclophosphamide schedules tested (e.g. 135 mg/kg every 4 days); cited from earlier work
[4] = tested on: mammary 16/C murine carcinoma; assay: Staged subcutaneous mammary 16/C carcinoma in mice, gross log cell kill; type: in vivo, C3H mice
Text: The final concentrations of each component of the vehicle was as follows: CREMOPHOR 10%; ethanol […]; aqueous 80%.
C3H conventional mice were purchased from Harlan-Sprague Dawley (Indianapolis, IN) and fed mouse chow and water ad libitum.
The metastatic mammary 16/C murine carcinoma was propagated biweekly in C3H mice. Experiments were initiated by subcutaneous insertion by trocar of tumor fragments.
For in vivo tumor testing, the C3H mice were implanted subcutaneously with mammary 16/C tumor fragments. All treatments were initiated on Day 10 post-tumor implant, except for an untreated control group. All groups contained 8 mice. Tumors were measured once or twice weekly and dimensions were converted to weights using the formula Weight (milligrams)= […], where a=length and b=width (in millimeters). The median time for tumors within each group of mice to reach 1 gram was determined and the delays in median time to reach 1 gram tumor target size for treated (T) versus control (C) groups was calculated. These delays in tumor growth (T-C value in days) were further converted to gross log cell kill (LCK) values using the formula T-C/(tumor volume doubling time, TVDT, of the control group) x (3.32). A LCK of greater than or equal to 1 LCK was considered an active result. Cures were assessed at the end of each experiment and defined in the absence of a tumor mass of greater than 35 milligrams. Experiments were terminated more than 10 x TVDT following the completion of all treatments.

[5] = tested on: human umbilical vein endothelial cell (HUVEC); assay: HUVEC proliferation (3H-thymidine incorporation); type: cell-based; conditions: second value of two separate experiments, read-out: IC50 in Cells HUVEC
Method: Primary human umbilical vein endothelial cells (HUVEC) were purchased from CLONETICS Inc. (San Diego, CA) and used at passage 2 to 3. Proliferation was measured using ^3H-thymidine incorporation in cells by pulsing twenty-four hours prior to harvesting cell cultures. […] Cells (2 × 10^3) were plated on collagen IV coated 96 well plates. Twenty-four hours later, compounds were added at varying concentrations. After 48 hours, ^3H-thymidine was added and cells were allowed to incorporate this label over a twenty-four hour period. Cellular extracts were harvested onto glass filters and incorporated radioactivity was determined by counting in a Beta scintillation counter. The IC50, defined as the drug concentration that causes 50% inhibition of ^3H-thymidine incorporation, was extrapolated from the plotted data.

[6] = metronomic regime 20 mg/kg orally, q2dx15, cumulative dose 300 mg/kg

Text for L2987 human lung tumors: L2987 human lung tumors were implanted and allowed to reach 50 to 100 mm^3 before drug administration.

Which results are given for `COC(=O)O[C@@]12CO[C@@H]1C[C@H](O)[C@@]1(C)C(=O)[C@H](OC(C)=O)C3=C(C)[C@@H](OC(=O)[C@H](O)[C@@H](NC(=O)OC(C)(C)C)C(C)(C)C)C[C@@](O)([C@@H](OC(=O)c4ccccc4)[C@H]21)C3(C)C` [Formula I, 3'-tert-Butyl-3'-N-tert-butyloxycarbonyl-4-deacetyl-3'-dephenyl-3'-N-debenzoyl-4-O-methoxycarbonyl-paclitaxel]?
doses lower than the maximum tolerated dose at which anti-angiogenic effects are still observed in vivo [1]: approximately 13 fold; weight loss (L2987 human lung tumors; 60 mg/kg orally, standard schedule q2dx5 (MTD), cumulative dose 300 mg/kg): weight loss was also observed; anti-tumor response (L2987 human lung tumors; 60 mg/kg orally, standard schedule q2dx5 (MTD), cumulative dose 300 mg/kg, compared with metronomic regime): greater anti-tumor response was observed; tumor growth (L2987 human lung tumors; [6]): suppressed tumor growth; weight loss (L2987 human lung tumors; [6]): no weight loss was observed; IC50 ([2]; H3396, read-out: IC50 in Cells H3396, second value of two separate experiments): 3 nM

Which controlling tumor growth [3] does the source give for `O=P1(N(CCCl)CCCl)NCCCO1` (stereo not shown) [cyclophosphamide] here?
Its controlling tumor growth is “more effective”.

Which cures/total ([4]; Paclitaxel 20 mg/kg/inj qd 10-14 iv, Paclitaxel 30 qd 32-36 iv, no Formula I, Day 88 post-tumor implant) does the source give for `CC(=O)O[C@H]1C(=O)[C@@]2(C)[C@H]([C@H](OC(=O)c3ccccc3)[C@]3(O)C[C@H](OC(=O)[C@H](O)[C@@H](NC(=O)c4ccccc4)c4ccccc4)C(C)=C1C3(C)C)[C@]1(OC(C)=O)CO[C@@H]1C[C@@H]2O` [TAXOL, paclitaxel] here?
The cures/total was 1/8.

What about the cures/total ([4]; Paclitaxel 30 mg/kg/inj qd 10-14 iv only, Day 60 post tumor implant) of the same compound?
Its cures/total is 2/8.

And the cures/total ([4]; Paclitaxel 30 mg/kg/inj qd 10-14 iv, Paclitaxel 30 qd 32-36 iv, no Formula I, Day 88 post-tumor implant, listed as Paclitaxel)?
Its cures/total is 2/8.

And the cures/total ([4]; Paclitaxel 30 mg/kg/inj qd 10-14 iv, Paclitaxel 30 qd 32-36 iv, no Formula I, Day 88 post-tumor implant, listed as paclitaxel)?
Its cures/total is 2 of 8.

What about the cures/total ([4]; Paclitaxel 45 mg/kg/inj qd 10-14 iv only, Day 60 post tumor implant) of the same compound?
Its cures/total is 1/8.

What about the “likely MTD regimen” value ([4]; during each of the two courses of treatment (qdx5; 10, 32, iv)) of the same compound?
Its value is 30 mg/kg/inj.

What about the MTD regimen ([4]; qdx5, iv, beginning on Day 10 post-tumor implant, single course) of the same compound?
The MTD regimen was 45 mg/kg/injection.

And the IC50 [5]?
The IC50 was 5 nM.

What about the IC50 ([2]; H3396, second value of two separate experiments, read-out: IC50 in Cells H3396) of the same compound?
Its IC50 is 4 nM.
